Entries after “also recorded” stand apart in the source; their conditions may differ.
Tests used:
[1] = system: endothelial cells (HUVEC); experiment: Binding of biotinylated ADOPep to endothelial cells by FACS; set-up: species or system human
Experimental: FIG. 3 is a FACS analysis depicting the binding (in percentages) of biotinylated ADOPep1 (ADOPep1^Biot), an ADAM15 derived peptide (SEQ ID NO:2), to endothelial cells (EC) under normoxia. Biotinylated ADOPep1 at 0.05, 0.5 and 5 microgram/ml (μg/ml) were added to endothelial cells.
FIG. 4 is a FACS analysis depicting the binding (in total counts) of Biotinylated ADOPep1 to endothelial cells under normoxia and hypoxia conditions. […] X axis—Intensity of binding.
Human umbilical endothelial cells (HUVEC) were harvested by trypsin and 100,000 cells per sample were suspended in PBS+5% FCS+0.1% Na azide. Endothelial cells were either exposed for 5 hours to hypoxia or remained under normoxia conditions. Cells were stained for 2 hours on ice in dark with 0.05, 0.5, 5 μg/100,000 cells biotinylated ADOPeps. The cells were then washed twice with PBS, following which the cells were stained for 30 minutes with FITC-labeled Streptavidin (Jackson ImmunoResearch Laboratories, PA, USA). After washing, samples were analyzed using a fluorescence activated cell sorter (FACScan Beckton Dickinson, Calif., USA).

mouse ischemic hind limb = experiment: Histological assessment of angiogenesis in ischemic hind limb (von Willebrand Factor VIII staining); type: in vivo
Experimental: FIG. 8 is a graph depicting histological assessment of angiogenesis in the ischemic hind limb treated with ADOPep1. Mice were subjected to hind limb ligation and ADOPep administration as described in FIG. 7 and at the noted days (0, 7, 14 and 21 days) post hind limb ligation the mice were sacrificed and legs were embedded in paraffin. Sections were stained with anti von Willebrand factor and the number of Factor VIII positive vessels was determined using the Image Pro Plus software. Shown are the average blood vessel densities (of 10 individual microscopical fields per sample) expressed as number of capillaries per millimeter squared in histological sections of mouse hind limb ischemia treated with ADOPep1.
FIGS. 9a-b are microscopical images of histological sections subjected to von Willebrand Factor immuno-staining of mouse hind limb ischemia 21 days following injection of ADOPep1 (FIG. 9a) or PBS (FIG. 9b). […]
Limbs from mice treated with ADOPep 1, 3 or control mice injected with PBS were sacrificed at 7, 14 and 21 days post operation. […] Vessel densities were expressed as capillaries per millimeter squared. To obtain the average vessel number per cross-section area, a minimum of ten individual fields were sampled, and Image Pro-Plus (MediaCybernetics, Silver spring, MD, USA) was used to measure the counted area. The number of Factor VIII positive vessels was counted.

GRP78 = GRP78 (Homo sapiens, UniProt P11021); experiment: GRP78 receptor internalization in endothelial cells under hypoxia; type: cell-based; set-up: endogenous in cells; host or cells: HUVEC / endothelial cells from umbilical cords, under normoxia or hypoxia; conditions: 10 ng/ml, after 5 minutes of incubation
GRP78, sequence (P11021 19-654): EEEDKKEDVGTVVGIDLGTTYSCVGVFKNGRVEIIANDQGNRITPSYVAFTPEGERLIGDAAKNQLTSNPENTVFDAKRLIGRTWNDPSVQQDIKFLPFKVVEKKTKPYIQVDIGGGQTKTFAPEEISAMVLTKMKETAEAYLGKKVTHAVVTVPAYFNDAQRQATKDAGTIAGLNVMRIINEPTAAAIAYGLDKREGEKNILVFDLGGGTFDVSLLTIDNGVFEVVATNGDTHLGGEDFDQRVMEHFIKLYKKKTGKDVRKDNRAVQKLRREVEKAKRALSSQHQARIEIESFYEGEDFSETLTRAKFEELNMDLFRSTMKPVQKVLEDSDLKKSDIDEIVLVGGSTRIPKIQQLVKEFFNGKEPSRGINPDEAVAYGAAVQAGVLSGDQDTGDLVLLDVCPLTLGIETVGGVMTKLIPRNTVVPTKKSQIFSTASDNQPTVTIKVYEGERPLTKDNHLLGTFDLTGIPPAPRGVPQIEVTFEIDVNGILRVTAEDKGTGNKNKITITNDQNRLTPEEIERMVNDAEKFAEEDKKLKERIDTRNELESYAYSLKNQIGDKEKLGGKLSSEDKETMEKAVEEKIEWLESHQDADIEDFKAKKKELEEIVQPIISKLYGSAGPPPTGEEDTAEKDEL
Experimental: FIG. 29 is a graph depicting GRP78 receptor internalization response to ADOPep1 binding under hypoxic conditions. Endothelial cells were incubated under starvation conditions and hypoxia over night. Cells were incubated with 10 ng/ml ADoPep1 for 5, 15, 30 and 60 minutes. For membrane staining biotinylated AdoePep1 at 5 micrograms was added to intact cells for 1 hour and replaced by streptavidin FITC. For intracellular staining, cells were fixed with 1% paraformaldehyde followed by 15 minutes incubation with 0.1% saponin. After washing of cells, biotinylated AdoPep was added to the cells. The samples were analyzed with a FACScan (Beckton Dickinson). Membrane staining is shown by the blue bars (results are expressed in percentages, as normalized to untreated cells); Mean intracellular staining is shown by the purple bars (results are expressed in mean fluorescence);

endothelial cells = experiment: Inhibition of binding of biotinylated ADOPep1 to endothelial cells by motif peptides; set-up: species or system human; conditions: normoxia, peptides 0.01, 0.1 or 1 ng/ml, ADOPep1^Biot 2 μg/ml
Experimental: FIG. 23 is a graph depicting the inhibition of binding of ADOPep1^Biot (2 μg/ml) to endothelial cells by specific peptides corresponding to conserved motifs from the ADOPeps. Endothelial cells were incubated for 2 hours under normoxia conditions in the presence of increasing concentrations (0.01, 0.1 or 1 ng/ml) of peptides having the amino acid sequences corresponding to Motif A (HWRRP; SEQ ID NO:7), Motif B (HWRRA; SEQ ID NO:8), Motif C (AHLLP; SEQ ID NO:6) or non-biotinylated ADOPep1 (SEQ ID NO:2) and then were incubated for 1 hour with biotinylated ADOPep1 (2 μg/ml) and the binding of biotinylated ADOPep1 to endothelial cells was determined using HRP-streptavidin.

Substance | binding to endothelial cells under hypoxia versus normoxia ([1]; 5 micrograms per 100,000 cells) | percent binding of biotinylated ADOPep1 to endothelial cells ([1]; hypoxia 5 hours, 5 μg/ml) | percent binding of biotinylated ADOPep1 to endothelial cells ([1]; normoxia, maximal at 5 μg/ml) | blood vessel density (number of blood vessels per area) (mouse ischemic hind limb; 0.1 μg per mouse, days 7, 14, 21, vs PBS) | von Willebrand Factor staining of small vessels (mouse ischemic hind limb; 21 days following injection, vs PBS) | GRP78 receptor internalization (GRP78) | inhibition of the binding of ADOPep1^Biot to endothelial cells (endothelial cells)
HWRRAHLLPRLP [ADOPep1, ADAM15 derived peptide, amino acids 286-297 of the metalloprotease domain] | increase in binding; also recorded: increased under hypoxia | about 85% | about 62% | significant increase (p<0.05) in the number of blood vessels; also recorded: significant increase in the blood vessel density | higher von Willebrand Factor Positive stained small vessels; also recorded: significantly higher von Willebrand Factor staining of small vessels | induced GRP78 receptor internalization | 
HWRRP [Motif A, 5 amino acid motif peptide] |  |  |  |  |  |  | significant inhibition

— patent publication US8741843B2, “Compositions and methods for inducing angiogenesis” (priority 2006, dated 2014)
